Experimental data from patent publication US11945806B2, “Stabilization of amyloidogenic immunoglobulin light chains” (The Scripps Research Institute, priority 2019, dated 2024).

How the values were obtained:
WIL-FL [1] = target: T1, WIL-FL (Homo sapiens, UniProt P01721); experiment: Fluorogenic coumarin titration; type: binding; conditions: 0.05 in buffer
WIL-FL C214S = experiment: Thioflavin T aggregation kinetics; type: biochemical, human; conditions: thioflavin T fluorescence
Method: Aggregation. WIL C214S was dialyzed into ddH2O and filtered. Each 1 ml reaction contained 10 μM LC, ddH2O, 1% DMSO or 200 μM 1 in 1% DMSO, 150 mM NaCl, and ABC buffer (20 mM sodium acetate, 20 mM boric acid, 20 mM sodium citrate, pH 5 with HCl). Components are listed in the order they were added.
Thioflavin T (ThT)-containing aggregation reactions were set up in 96-well plates with similar conditions used for the reactions described above, except each 100 μl reaction also contained 2 μM ThT. Aggregation was induced with shaking as previously described (4). In total, 21 replicates for both vehicle and 1, over four independent experiments (plates) were performed.
WIL-FL C214S aggregates upon vigorous stirring at or below pH 5 to form heterogenous aggregate structures. […] This may be because a given LC can stochastically form different aggregate structures with different kinetics.

JTO-V = JTO-V (Homo sapiens, UniProt P01721); experiment: NMR ZZ-exchange experiment; type: binding; conditions: JTO-V2•1 complex
Method: Chemical exchange saturation transfer (CEST) experiments were acquired on WIL-V samples at 0.4 mM in the presence of 0.2 or 0.3 mM 1 using a multi-site excitation scheme (16). […] Further details of the analysis of these experiments are given in the Supplemental NMR Analysis described below.

5J8 Fab = experiment: PK proteolysis; type: biochemical, human
WIL-FL* [2] = target: T2, WIL-FL* (Homo sapiens, UniProt P01721, K101C, form not given); experiment: Protease-coupled fluorescence polarization (PCFP) assay with proteinase K; conditions: secondary screen, mean ± sd, n=3; 6.75 μM compound; FP retention after 24 h at 22° C., normalized to high and low controls
LCs with C214S mutation = experiment: Fluorogenic coumarin titration, C214S LCs; type: binding, human; conditions: 1 at 1 μM
Method: (§1) Fluorogenic coumarin titration. LCs were concentrated to 200 μM in centrifugal concentrators with a 10 kDa membrane, unless the available material was limiting. […] Fluorescence of 1 was measured on a Gemini plate reader (Molecular Devices) using an excitation wavelength of 373 nm and emission wavelength of 445 nm. Data were normalized platewise to the plateau fluorescence value for WIL-FL to calculate the fraction of 1 bound.
A successful kinetic stabilizer should, but is not required to, bind to and stabilize patient LCs with a vast range of sequences (30, 31). To ask whether 1 can stabilize other FL LC sequences, we measured binding of 1 to three more recombinant λ6-57 FL LC disulfide-linked dimers: JTO-FL; ALMC2-FL, an AL-associated LC sequence derived from the ALMC2 cell line (32); and the germline sequence 6aJL2-FL.

WIL-FL [3] = target: T1, WIL-FL; experiment: PK proteolysis of unlabeled WIL-FL by SDS-PAGE; conditions: WIL-FL 10 μM, small molecule 100 μM, t=2 h
Method: The experiment in FIG. 1b measured simultaneous proteolysis of labeled and unlabeled LC by adding 20 nM WIL-FL* or JTO-FL* to 5 μM WIL-FL or JTO-FL, respectively. Fluorescein fluorescence images of the SDS-PAGE gels were recorded, after which the gels were Coomassie stained and imaged.

WIL-FL [4] = target: T1, WIL-FL; experiment: Equilibrium unfolding, urea titration; type: biochemical; conditions: 1 at 100 μM or 5 at 50 μM, WIL-FL 5 μM; 1.4 M without ligand
Method: Equilibrium unfolding. WIL-FL (5 μM) was titrated against urea in 50 mM sodium phosphate buffer, pH 7.0, containing 50 μM 5 or 100 μM 1. After incubation overnight at 25° C., intrinsic tryptophan fluorescence emission spectra were measured using a Jasco 8600 fluorimeter (μex=280 nm, μem=300-420 nm). Average wavelength (also known as center of spectral mass) values were calculated using the equation: […]
λi and Ii are the are the wavelength and intensity at i, respectively. Average wavelength data were normalized for comparison. […] Midpoint urea concentrations were calculated by fitting the titration data to a 2-state unfolding equation: […]
x is the urea concentration (M), G is the free energy of unfolding (kJ mol^−1), m is the denaturant dependence of the unfolding reaction (kJ mol^−1 M^−1), R is the ideal gas constant, T is the temperature in K, a and c are the fluorescence of the folded and unfolded states, and b and d are the denaturant dependence of the fluorescence of the folded and unfolded states, respectively.

WIL-V = WIL-V (Homo sapiens, UniProt P01721); experiment: Sedimentation velocity analytical ultracentrifugation (SV-AUC); conditions: LC 20 μM, 1 at 100 μM
Method: Analytical Ultracentrifugation (AUC). […] Sedimentation was measured by absorbance at 280 nm. Data were processed using SedFit (6).

[5] = test system: WIL-FL and JTO-FL variants with F98D mutation; experiment: Fluorogenic coumarin titration, F98D variants; type: binding, human; conditions: 1 at 1 μM; presence or absence of the C214 inter-chain disulfide bond
Method: as §1
To further test the hypothesis that 1 binds at the interface between the V-domains, we measured binding of 1 to WIL-FL and JTO-FL variants with mutations designed to disrupt the dimer (22). The F98D mutation, which disrupts the V-domain-V-domain interface, rendered binding of 1 (1 μM) undetectable in the presence or absence of the C214 inter-chain disulfide bond (FIG. 2d, right panel).

WIL-FL* [6] = target: T2, WIL-FL*; experiment: PCFP assay with thermolysin; conditions: mean ± sd, n=3; 6.75 μM compound
Method: Thirdly, to remove molecules that inhibit proteinase K, the assay was repeated in triplicate using 100 nM thermolysin (Thermo). […] The additional metal ions were added to bind to ion-chelating small molecules and prevent them from inhibiting the metalloproteinase.
To identify and exclude molecules that interfered with FP measurements, the assay was repeated, but candidate stabilizers were not added until after 24 h of PK treatment (FIG. 1f). […] Thermolysin is a broad-spectrum metalloprotease that is likely not inhibited by compounds that inhibit PK, a serine protease.

## CCN(CC)c1ccc2c(C)cc(=O)oc2c1 [Compound 1, 7-diethylamino-4-methylcoumarin]
WIL-FL [1]
  FP of 1 in the WIL-FL•1 complex: 0.35
WIL-FL C214S
  rate of aggregation versus vehicle control: decreases the rate of aggregation significantly
JTO-V
  off-rate: 57 ± 2 s⁻¹
5J8 Fab
  protection from PK proteolysis: does not protect
WIL-FL* [2]
  PK activity (%): 47.8 ± 0.7%
LCs with C214S mutation
  affinity of LCs for 1: reduces the affinity
WIL-FL [3]
  protection of WIL-FL against PK proteolysis: protects this FL LC against PK proteolysis
WIL-FL [4]
  midpoint concentration of urea required to unfold the FL LC: 2.0 M
WIL-V
  size distribution (SV-AUC): increase
[5]
  binding of 1: undetectable
WIL-FL* [6]
  Thermolysin activity (%): 36.4 ± 2.0%
